Data from US6573296B2, “Therapeutic quassinoid preparations with antineoplastic, antiviral, and herbistatic activity” (priority 1997, dated 2003).

Assays:
[1] = tested on: porcine pseudorabies virus; details: rabbit kidney cells
[2] = tested on: C38; assay: soft agar disk diffusion zone of inhibition assay; type: cell-based, mice; details: 25 ug/disk
[3] = tested on: Crandall Feline Kidney cells infected with Feline Immunodeficiency Virus (FIV); assay: time for complete cell killing, FIV-infected cells
[4] = tested on: M17/Adr; details: multidrug resistant, p-glycoprotein expressing mammary tumor versus leukemia
[5] = tested on: plasma membrane NADH oxidase (tNOX)
[6] = in vivo chemotherapy of SC transplanted tumor; parameters: species or system mice; details: mouse, in vivo; C38; IV; days: Glaucarubinone 3,5-10, Holacanthone 3-12, Glaucarubolone 3-6, Chaparrinone 3-9; read-out: MTD Total Dose
Source text: Mice. Inbreds mice used were C57B1/6, C3H/He, Balb/c, and DBA/2; hybrids were: B6D2F1 (C57B1/6 females×DBA/2 males), and CD2F1 (Balb/c females×DBA/2 males). All mice were obtained from the Frederick Cancer Research Facility, Frederick, Md.
Tumors were maintained in the mouse strain of origin and were transplanted into either an appropriate F1 hybrid or the strain of origin for therapy trials. All mice were over 17 g at the start of therapy; the range of individual body weights in each experiment was within 2 g. The mice were supplied food and water ad libitum.
Antitumor Agents. The compound easily dissolved in the diluent which consisted of 3% [V/V (100%-Pure)] Ethanol, 1% (V/V) polyoxyethylanesorbitan monopalmitate (P.O.E.40) and 96% sterile distilled water. The primary route of administration was intravenous (IV).
[…] Chemotherapy. The methods of protocol design, tumor transplantation, drug treatment, endpoint determination, definition of terms, toxicity evaluation, data analysis, quantification of tumor cell kill, and the biologic significance of the drug treatment results with transplantable tumors have been presented. The following is a brief summary of those methods as they apply to the work described.
The animals necessary to begin an experiment were pooled, implanted bilaterally SC on day 0 with 30 to 60 mg tumor fragments using a 12 gauge trocar, and again pooled before randomization to the various treatment and control group. Chemotherapy was either started within 3 days after tumor implantation while the number of cells per mouse was relatively small (10^7 to 10^8 cells), or allowed to grow to palpation (about 3×10^8 cells) in a more advanced stage trial.
Tumors were measured with a caliper either once or twice weekly (as needed) until either tumors exceeded 1500 mg or cure was. assured. Tumor weights were estimated from two-dimensional measurements:
Tumor Weight (mg)=(a×b^2)/2, where a and b are the tumor length and width (mm) respectively.
Tumor growth delay. (T-C value), where T is the median time (in days) required for the treatment group tumors to reach a predetermined size, and C is the median time (in days) for the control group tumors to reach the same size. Tumor-free survivors were excluded from these calculations (cures were tabulated separately).
Calculation of tumor cell kill. For SC growing tumors, the log10 cell kill was calculated from the following formula: [formula]
Where T-C is the tumor growth delay (in days) as described above and Td is the tumor volume doubling time (in days), the latter estimated from the best fit straight line from a log-linear growth plot of the control-group tumors in exponential growth (500 to 1500 mg range). The conversion of the T-C values of log10 cell kill is possible because the Td for tumors regrowing post-treatment approximated the Td values of the tumors in untreated control mice.
Determination of activity by tumor growth inhibition (T/C value). Measurements were carried out simultaneously in both the treatment and control groups. When the control group tumors reached approximately 750-1500 mg in size (median of group), the median tumor weight of each group was determined (including zeros).

[7] = tested on: NADH oxidase; assay: NADH oxidase activity of CFK microsomes from infected cells; details: Plasma membrane-free CFK microsomes (Golgi-enriched) from infected cells
[8] = tested on: L1210; assay: soft agar disk diffusion zone of inhibition assay; type: cell-based, mice; details: 25 ug/disk
[9] = tested on: Crandall Feline Kidney cells (CFK cells), uninfected; assay: time for complete cell killing, uninfected cells
[10] = tested on: Tomato plants; assay: growth of plants in peat after treatment; type: in vivo
Procedure: Tomato plants about 3.5 cm high at the time of treatment were grown in peat in a flat of 1.5 inch diameter compartments and were treated with either aqueous simalikalactone (solution QD-1) or aqueous glaucarubolone (solution QD-2) containing 0.1% Triton X-100. The final volume/plant was 10 μ1 for the aqueous solution and 200 µl of the aqueous solution containing Triton X-100. […] With the aqueous treatment, plants also were inhibited but not as markedly as with detergent.

[11] = tested on: Sorghum (DeKalb 18); assay: growth of plants in soil after foliar application; type: in vivo; details: twenty days after treatment, 10 μl of 1:1000/half pot; control plants 16 cm
Procedure: To evaluate the growth phenotype of a set of plants, a 1 mg concentration of 100 Mm (solution QD-2). This solution was diluted serially with water with or without Triton X-100, ethanol or DMSO and used directly for measurement of effects on seed germination or applied using a microliter syringe to foliage to evaluate growth effects on plants.
Sorghum (DeKalb 18) plants growing in soil were treated as for Arabadopsis thaliani above after 6 days of germination when the plants were about 5 cm high (as the leaf emerged from the coleoptile sheath). Growth was retarded. Twenty days after treatment, control plants were 16 cm high and treated plants were 12 cm high. The application rate was 10 µl of 1:1000/half pot=2.5×10^−3 oz/A.

## CC1=CC(=O)C(O)C2(C)C1CC1OC(=O)C(O)C3C(C)C(O)C4(O)OCC13C42 (stereo not shown) [Glaucarubolone, glaucarubolone]
[1]; non-infected
  cytopathic effect on non-infected treated control cells: no cytopathic affect
[1]; visually monitored
  cytopathic effect of porcine pseudorabies virus: inhibited cytopathic effect
[2]
  zone of inhibition C38: 900 ZONE UNITS
[3]; 3 × 10^−4 M
  Time for complete cell killing (>98%), FIV-Infected: >168 h
[3]; 3 × 10^−5 M
  Time for complete cell killing (>98%), FIV-Infected: >168 h
[3]; 3 × 10^−6 M
  Time for complete cell killing (>98%), FIV-Infected: >168 h
[3]; 3 × 10^−7 M
  Time for complete cell killing (>98%), FIV-Infected: >168 h
[3]; 3 × 10^−8 M
  Time for complete cell killing (>98%), FIV-Infected: >168 h
[3]; 3 × 10^−9 M
  Time for complete cell killing (>98%), FIV-Infected: >168 h
[3]; FIGS. 6 and 7, Table 3
  killing of FIV-infected compared to non-infected CFK cells: differential killing of infected cells
[4]
  differential / selectivity for M17/Adr (Mam 17/Adr): demonstrated selectivity
[5]; HeLA (ATCC CCL2 strain), FIG. 10
  inhibition of NADH oxidation, in words: inhibits NADH oxidation
[5]; HeLa cell plasma membranes, FIG. 12
  effect of redox poise on inhibition of NADH oxidase activity: affected little by redox poise
[6]
  MTD: 151 mg/kg
[7]
  ED50, inhibition of NADH oxidase activity: >10^−8 M
[8]
  zone of inhibition L1210: 25:100 ZONE UNITS
[9]; 3 × 10^−4 M
  Time for complete cell killing (>98%), Uninfected: 120 h
[9]; 3 × 10^−5 M
  Time for complete cell killing (>98%), Uninfected: 120 h
[9]; 3 × 10^−6 M
  Time for complete cell killing (>98%), Uninfected: 144 h
[9]; 3 × 10^−7 M
  Time for complete cell killing (>98%), Uninfected: 192 h
[9]; 3 × 10^−8 M
  Time for complete cell killing (>98%), Uninfected: >192 h
[9]; 3 × 10^−9 M
  Time for complete cell killing (>98%), Uninfected: >192 h
[10]; 1:1000 and 1:10,000 dilutions in detergent solution, 30 days after treatment
  effect on tomato plants, in words: still inhibited
[10]; 100 Mm diluted 1:100 in 0.1% Triton X-100
  effect on tomato plants, in words: did not grow and eventually died
[11]
  height of treated plants: 12 cm
